These results are taken from patent publication US20230234917A1, “ASPARAGINE DERIVATIVES AND METHODS OF USING SAME” (priority 2020, published 2023).

Assay [1] concerns the target T1, ClbP (Escherichia coli, UniProt Q0P7K6). Nature of the assay: ClbP whole cell activity (inhibition) assay, fluorogenic substrate. It is filed as cell-based, E. coli. As to the method: Whole Cell Activity Assay
(§1) 1) E. coli ClbP+ were taken from a frozen stock and streaked onto BHI plates. They were grown aerobically at 37° C. overnight in the incubator.
(§2) 1) A single colony was selected from the plate and inoculated into 30 mL LB in a 50 mL conical vial eight times (240 mL total). The bacteria were grown aerobically overnight (16-20 h) at 37° C. on a nutator with rocking.
1) The saturated overnight culture was centrifuged to create a firm pellet (3,200 g, 10 min, 4° C.). In a biosafety cabinet, the supernatant was removed and then the pellet was resuspended in 30 mL sterile PBS.
2) The bacteria were centrifuged again (3,200 g, 10 min, 4° C.). The supernatant was removed, and the pellet was resuspended in sterile PBS buffer (6 mL) in each of the 8 tubes. This fivefold concentrated bacterial solution was the working solution.
3) The bacterial working solution (192 μL) was mixed with inhibitor (6 μL, final concentration was 300, 100, 33.3, 11.1, 3.7, 1.2, 0.4, or 0 μM). Fluorogenic substrate (2 μL, final concentration 5 μM) was immediately added across the plate to initiate the reaction. As a control, each plate contained Compound No. III in this dose response curve. The bacterial concentration was fivefold concentrated compared to the original saturated overnight culture. Carryover from DMSO was 4% (v/v). All compounds were tested in singlicate.
4) The plate was loaded into a spectrophotometer preheated to 37° C. The fluorescence was recorded every 2 min for 46 min. The excitation wavelength was 360 nm (20 nm bandwidth), the emission wavelength was 460 nm (20 nm bandwidth), the optics position was bottom, the gain was 65, the light source was a tungsten bulb, and the read speed was normal.
5) The linear portion of the fluorescence increase was 10-30 min. The rate of fluorescence increase (A.U./min) for each well in an inhibitor series was normalized to the 0 μM inhibitor condition. The normalized activity as a function of inhibitor concentration was then fit to a three parameter IC50 curve in Graphpad Prism.
(§3) “A” indicates an IC50 value less than 100 μM, “B” indicates an IC50 between 100 and 300 μM, “C” indicates an IC50 above 300 μM.

Assay [2] concerns the target Full-length WT ClbP (Escherichia coli, UniProt Q0P7K6). Nature of the assay: ClbP molecular (purified protein) enzymatic inhibition assay, fluorogenic substrate. It is filed as biochemical, E. coli. The protocol:
ClbP Molecular (Purified Protein) Assay
1) Full-length WT ClbP was thawed on ice. A diluted enzyme solution (2 nM) was made by mixing 3.57 μL of enzyme with 20 mL of reaction buffer (50 mM Tris pH 8.0, 200 mM NaCl, 0.02% (w/v) n-dodecyl-b-D-maltoside (DDM)).
2) In a 96 well plate, the diluted protein solution (73.5 μL) was mixed with inhibitor (1.5 μL, of varying concentrations, see below) and preincubated for 15 min at room temperature. Then, reaction buffer (75 μL) containing 10 μM fluorogenic substrate was added to initiate the reaction. After addition of substrate, the final concentrations were 1 nM full-length WT ClbP, 5 μM fluorogenic substrate in 50 mM Tris pH 8.0, 200 mM NaCl, 0.02% (w/v) DDM, with either 0, 0.14, 0.41, 1.2, 3.7, 11, 33, or 100 μM inhibitor. For all conditions, the DMSO carryover was 2% (v/v) at the preincubation stage and 1% in the reaction stage. Compound No. III was always present as a control in each plate, and all compounds were tested in singlicate. In previous assays, the Km of the fluorogenic substrate was determined to be approximately 5 μM.
3) Immediately after addition of substrate to enzyme, the plate was transferred into a spectrophotometer held at room temperature. The fluorescence was recorded every 1.5 min for 15 min. The excitation wavelength was 360 nm (20 nm bandwidth), the emission wavelength was 440 nm (20 nm bandwidth), the optics position was bottom, the gain was extended, the light source was a xenon flash lamp, and the read speed was normal.
4) The linear portion of the fluorescence increase is at least from 0-6 min, so this time regime is used. The rate of fluorescence increase (A.U./min) for each well in an inhibitor series was normalized to the 0 μM inhibitor condition. The normalized activity as a function of inhibitor concentration was then fit to a three parameter IC50 curve in Graphpad Prism.
as §3

Assay [3] addresses T1, ClbP. Nature of the assay: ClbP cell lysate activity (inhibition) assay, fluorogenic substrate. The assay is classed as biochemical. Particulars: ClbP Lysate Inhibition Assay: IC50, E. coli ClbP+ lysozyme-EDTA lysates, 5 μM fluorogenic substrate, inhibitor 0-300 μM, 37° C., singlicate. The protocol:
Cell Lysate Activity Assay
as §1, §2
1) The saturated overnight culture was centrifuged to create a firm pellet (3,200 g, 10 min, 4° C.). The supernatant was removed and then the pellet was resuspended in 30 mL sterile PBS.
2) The bacteria were centrifuged again (3,200 g, 10 min, 4° C.). The supernatant was removed, and the pellet was resuspended in sterile PBS buffer (3 mL) in each 8 tubes to make a tenfold concentrated bacterial solution.
3) A lysozyme-EDTA (LE) solution was made in ddH2O (0.05 mg/mL lysozyme, 0.25 M EDTA).
4) For each of the eight tubes, LE solution (3 mL) was mixed with concentrated bacterial solution (3 mL). This mixture was incubated at 37° C. for 30 min to generate the lysates.
5) The lysates (192 μL) were mixed with inhibitor (6 μL, final concentration was 300, 100, 33.3, 11.1, 3.7, 1.2, 0.4, or 0 μM). Fluorogenic substrate (2 μL, final concentration 5 μM) was immediately added across the plate to initiate the reaction. As a control, each plate contained Compound No. III in this dose response curve. The final concentration of bacterial lysates was fivefold concentrated compared to the original saturated overnight culture. Carryover from DMSO was 4% (v/v). All compounds were tested in singlicate.
6) The plate was loaded into a spectrophotometer preheated to 37° C. The fluorescence was recorded every 2 min for 46 min. The excitation wavelength was 360 nm (20 nm bandwidth), the emission wavelength was 460 nm (20 nm bandwidth), the optics position was bottom, the gain was 65, the light source was a tungsten bulb, and the read speed was normal.
7) The linear portion of the fluorescence increase was 0-20 min. The rate of fluorescence increase (A.U./min) for each well in an inhibitor series was normalized to the 0 μM inhibitor condition. The normalized activity as a function of inhibitor concentration was then fit to a three parameter IC50 curve in Graphpad Prism.
as §3

The IC50 is the midpoint of a concentration-inhibition curve. Regarding `CCCCCCCC(=O)N[C@H](CC(N)=O)C(=O)NCCC1CCNCC1` [Compound CCXVIII], the IC50 in assay [1] is less than 100 µM; in assay [2] it was 100 to 300 µM; in assay [3] it was less than 100 µM.
Take `CN(CCCCCC(=O)N[C@H](CC(N)=O)C(=O)NCCc1ccc(O)cc1)Cc1ccccc1` [Compound CCXCI]: the IC50 in assay [1], in assay [2] and in assay [3] was less than 100 µM each time.
Regarding `NC(=O)C[C@@H](NC(=O)CC1CCCCC1)C(=O)NCCc1ccccc1` [Compound CCLXXI], the IC50 in assay [1] was 100 to 300 µM; in assay [2], less than 100 µM; in assay [3], more than 300 µM.
The like results for `NC(=O)C[C@@H](NC(=O)CCCC1CCCC1)C(=O)NCCc1ccc(O)cc1` [Compound CCLXI] were, in that order, less than 100 µM, less than 100 µM and less than 100 µM.
With `CCCCCCCC(=O)N[C@H](CC(N)=O)C(=O)NCCCc1ccccc1` [Compound CCXIII], the IC50 in assay [1], in assay [2] and in assay [3] was less than 100 µM each time.
For the molecule `NC(=O)C[C@@H](NC(=O)CCC1CCCCC1)C(=O)NCCc1ccc(O)cc1` [Compound CCXLII], the IC50 in assay [1], in assay [2] and in assay [3] was less than 100 µM in each case.
In the case of `CCCCCCCC(=O)N[C@H](CC(N)=O)C(=O)NCCc1cccc(O)c1` [Compound CCXXIII], the IC50 in assay [1], in assay [2] and in assay [3] was less than 100 µM throughout.
On to `CCCCCCCC(=O)N[C@H](CC(N)=O)C(=O)NCCc1ccc(C(F)(F)F)cc1` [Compound CXCV], for which the IC50 in assay [1] was more than 300 µM; in assay [2], 100 to 300 µM; in assay [3], more than 300 µM.
Consider `CCCCCCCC(=O)N[C@H](CC(N)=O)C(=O)NCCc1ccc(OC)nc1` [Compound CCXXXVII], for which the IC50 in assay [1], in assay [2] and in assay [3] was less than 100 µM in each case.
On to `CCCCCCC(F)(F)C(=O)N[C@H](CC(N)=O)C(=O)NCCc1ccc(O)cc1` [Compound CCXXXVI], for which the IC50 was more than 300 µM in assay [1], less than 100 µM in assay [2] and less than 100 µM in assay [3].
With `CN1CCC(CCCC(=O)N[C@H](CC(N)=O)C(=O)NCCc2ccc(O)cc2)CC1` [Compound CCCVIII], the half-inhibitory concentration (IC50) in assay [1] is less than 100 µM; in assay [2], more than 300 µM; in assay [3] it was more than 300 µM.
`NC(=O)C[C@@H](NC(=O)/C=C/CC1CCCCCC1)C(=O)NCCc1ccccc1` [Compound CCXXXVIII]: the IC50 in assay [1], in assay [2] and in assay [3] was less than 100 µM each time.
For `CCCCCCCC(=O)N[C@H](CC(N)=O)C(=O)NCCc1ccc(O)c(O)c1` [Compound CCXXVI], the IC50 in assay [1], in assay [2] and in assay [3] was less than 100 µM in each case.
For the molecule `CCCCCCCC(=O)N[C@H](CC(N)=O)C(=O)N[C@@H](C)Cc1ccc(O)cc1` [Compound CCXLIV], the IC50 in assay [1], in assay [2] and in assay [3] was less than 100 µM each time.
For the molecule `CCCCCCCC(=O)N[C@H](CC(N)=O)C(=O)NCCn1cccn1` [Compound CCXXVIII], the half-maximal inhibitory concentration (IC50) in assay [1], in assay [2] and in assay [3] was less than 100 µM in each case.
As for `NC(=O)C[C@@H](NC(=O)CCCCC(F)(F)F)C(=O)NCCc1ccc(O)cc1` [Compound CCXCII], the IC50 in assay [1], in assay [2] and in assay [3] was less than 100 µM throughout.
For `CCCCCCCC(=O)N[C@H](CC(N)=O)C(=O)NCCc1cc(F)c(O)c(F)c1` [Compound CCLVI], the IC50 in assay [1], in assay [2] and in assay [3] was less than 100 µM each time.
For the molecule `CCCCCC(=O)N[C@H](CC(N)=O)C(=O)NCCc1ccccc1` [Compound CCLXVII], the values for the IC50 in assay [1], in assay [2] and in assay [3] were less than 100 µM, less than 100 µM and 100 to 300 µM, respectively.
As for `CCCCCCCC(=O)N[C@H](CC(N)=O)C(=O)NCCOc1ccccc1` [Compound CCLIV], the IC50 in assay [1], in assay [2] and in assay [3] was less than 100 µM throughout.
Regarding `CCCCCCCC(=O)N[C@H](CC(N)=O)C(=O)c1nccn1C` [Compound CCLVII], the IC50 in assay [1] was more than 300 µM; in assay [2], 100 to 300 µM; in assay [3], more than 300 µM.
With `CCCCCCCC(=O)N[C@@H](CNC(C)(C)C)CC(N)=O` [Compound VIII], the IC50 in assay [1], in assay [2] and in assay [3] was less than 100 µM in each case.
In the case of `CCCCCCCNC(=O)[C@H](CC(N)=O)NC(=O)Oc1ccccc1` [Compound CCX], the IC50 in assay [1] is more than 300 µM; in assay [2] it was 100 to 300 µM; in assay [3] it was more than 300 µM.
As for `CCCCCCCC(=O)N[C@H](CC(N)=O)C(=O)NCCc1cncs1` [Compound CCXXXII], the IC50 in assay [1], in assay [2] and in assay [3] was less than 100 µM throughout.
On to `CCCCCCCC(=O)N[C@H](CC(N)=O)C(=O)NC[C@H](C)c1ccccc1` [Compound CCCI], for which the IC50 in assay [1], in assay [2] and in assay [3] was less than 100 µM each time.
Turning to `NC(=O)C[C@@H](NC(=O)CCCc1ccccc1)C(=O)NCCc1ccccc1` [Compound CCLXIX], the IC50 in assay [1], in assay [2] and in assay [3] was less than 100 µM throughout.
For the molecule `NC(=O)C[C@@H](NC(=O)CCCC1CCCCCC1)C(=O)NCCc1ccccc1` [Compound CCXXXIX], the half-inhibitory concentration (IC50) in assay [1], in assay [2] and in assay [3] was less than 100 µM each time.
Take `CCCC(=O)N[C@H](CC(N)=O)C(=O)NCCc1ccccc1` [Compound CCLXVIII]: the IC50 in assay [1] was less than 100 µM; in assay [2], 100 to 300 µM; in assay [3], more than 300 µM.
Taken in the same sequence, the figures for `CCCCCCCC(=O)N[C@H](CC(N)=O)C(=O)NCCc1c(F)cc(O)cc1F` [Compound CCCVI] were less than 100 µM, less than 100 µM and less than 100 µM.
